Assay results taken from patent US6204384A, “Substituted 3-amino-2-hydroxyphenylacetamide derivatives as enzyme inhibitors (II)” (Corvas International, Inc., priority 1997, dated 2001).

How the values were obtained:
[1] = literature; cited from earlier work
[2] = tested on: trypsin, plasmin and kallikrein; conditions: literature, inhibiting trypsin; cited from earlier work
[3] = literature; cited from earlier work; remark: listed apart in the source
[4] = tested on: thrombotic occlusion of the carotid artery; assay: Rat model of FeCl3-induced platelet-dependent arterial thrombosis; format: in vivo; conditions: dose that prevents complete thrombotic occlusion in 50% of animals tested, read-out: ED50 for thrombus prevention in the FeCl3 model of arterial thrombosis
Procedure: The antithrombotic (prevention of thrombus formation) properties of compounds of the present invention are evaluated using the following established experimental model of acute vascular thrombosis which is a rat model of FeCl3 -induced platelet-dependent arterial thrombosis.
This is a well characterized model of platelet dependent, arterial thrombosis which has been used in the evaluation potential antithrombotic compounds such as direct thrombin inhibitors. See, Kurz, K. D., Main, B. W., and Sandusky, G. E., Thromb. Res., 60: 269-280 (1990). In this model a platelet-rich, occlusive thrombus is formed in a segment of the rat carotid artery treated locally with a fresh solution of FeCl3 absorbed to a piece of filter paper. […] The effect of a test compound on the incidence of occlusive thrombus formation following the application of the […] is monitored by ultrasonic flowtometry and is used as the primary end point. […]
Following surgery the animals are randomized in either a control (saline) or treatment group with test compound, with at least 6 animals per group per dose. […] Blood pressure, blood flow, heart rate, and respiration are monitored for 60 minutes.
The incidence of occlusion (defined as the attainment of zero blood flow) is recorded as the primary end point. […]

Row | Structure (SMILES) | pharmacokinetics, in words [1] | selectivity, in words [2] | toxicity, in words [3] | ED50 [4]
1 | N=C(N)c1ccc(CC(=O)C(=O)O)cc1 [APPA, 4-amidinophenylpyruvic acid] | favourable pharmacokinetics | non-selective, inhibiting trypsin, plasmin and kallikrein | low toxicity | –
2 | CC1CNc2c(cccc2S(=O)(=O)N[C@@H](CCCNC(=N)N)C(=O)N2CC[C@@H](C)C[C@@H]2C(=O)O)C1 (stereo partly drawn) [Argatroban, 2R,4R-4-methyl-1-[N-2-(3-methyl-1,2,3,4-tetrahydro-8-quinolinesulfonyl)-L-argininy]-2-piperdinecarboxylic acid] | – | – | – | 3.8 mg/kg
